biological target: PIK3CA (human) (UniProt P42336); test: Assessment of PIK3CA Kinase Activity
Sequence (P42336 whole entry, looked up): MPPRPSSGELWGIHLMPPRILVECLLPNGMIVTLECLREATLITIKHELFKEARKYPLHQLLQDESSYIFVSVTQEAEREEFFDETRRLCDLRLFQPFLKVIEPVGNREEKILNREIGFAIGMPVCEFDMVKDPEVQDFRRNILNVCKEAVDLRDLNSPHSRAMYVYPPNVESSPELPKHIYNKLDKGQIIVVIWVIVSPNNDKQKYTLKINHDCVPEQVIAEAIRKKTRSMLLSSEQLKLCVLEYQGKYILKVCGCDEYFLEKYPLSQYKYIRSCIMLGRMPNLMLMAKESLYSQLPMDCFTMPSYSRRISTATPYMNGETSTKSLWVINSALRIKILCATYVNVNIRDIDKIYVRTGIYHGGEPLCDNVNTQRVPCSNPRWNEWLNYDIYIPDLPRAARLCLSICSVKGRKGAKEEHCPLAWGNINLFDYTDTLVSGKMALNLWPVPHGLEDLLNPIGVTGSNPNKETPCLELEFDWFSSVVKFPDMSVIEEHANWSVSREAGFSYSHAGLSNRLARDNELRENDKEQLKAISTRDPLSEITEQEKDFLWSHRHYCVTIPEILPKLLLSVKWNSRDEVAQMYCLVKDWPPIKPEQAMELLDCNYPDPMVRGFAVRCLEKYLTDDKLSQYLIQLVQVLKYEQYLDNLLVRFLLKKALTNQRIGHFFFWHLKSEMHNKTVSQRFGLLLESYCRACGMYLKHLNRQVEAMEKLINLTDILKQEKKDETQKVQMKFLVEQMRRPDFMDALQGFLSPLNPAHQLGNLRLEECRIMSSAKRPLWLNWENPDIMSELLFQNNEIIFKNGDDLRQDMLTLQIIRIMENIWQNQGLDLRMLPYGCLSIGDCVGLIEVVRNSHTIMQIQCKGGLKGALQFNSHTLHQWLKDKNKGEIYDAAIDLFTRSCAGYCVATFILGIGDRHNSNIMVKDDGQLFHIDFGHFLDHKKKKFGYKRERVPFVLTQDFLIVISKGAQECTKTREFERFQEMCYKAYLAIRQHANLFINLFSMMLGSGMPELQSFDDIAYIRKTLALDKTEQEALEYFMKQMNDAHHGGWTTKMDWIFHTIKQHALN

IC50 [nM] | SMILES
< 1000 | CC(C)(CO)NC(=O)c1ccc2c(c1)OCCn1cc(-c3ncnn3-c3ccccc3Cl)nc1-2
< 1000 | CC(C)n1ncnc1-c1cn2c(n1)-c1ccc([C@@H](C)C(N)=O)cc1OCC2
< 1000 | CC(C)n1ncnc1-c1cn2c(n1)-c1ccc(C3CCN(CC(N)=O)CC3)cc1OCC2
< 1000 | Nc1cc2c(cn1)-c1nc(-c3ncnn3CC(F)(F)F)cn1CCO2
< 1000 | CC(C)n1ncc(C#N)c1-c1cn2c(n1)-c1ccc(C(N)=O)cc1OCC2
< 1000 | CC(C)n1ncnc1-c1cn2c(n1)-c1cc(-c3cncnc3)ccc1OCC2
< 1000 | CC(C)n1ccnc1-c1cn2c(n1)-c1ccc(-c3cnn(CC(C)(C)O)c3)cc1OCC2
< 1000 | OCCn1cc(-c2ccc3c(c2)OCCn2cc(-c4ncnn4CC(F)(F)F)nc2-3)cn1
< 1000 | Nc1nc(-c2cn3c(n2)-c2cc(-c4ccc(Cl)cc4)ccc2OCC3)n(-c2ccccc2Cl)n1
< 1000 | CC(C)n1ncnc1-c1cn2c(n1)-c1ccc(OC3COC3)cc1OCC2
< 1000 | CC(C)n1ncnc1-c1cc2n(n1)-c1cc(C(=O)N3CCN(CC(F)(F)F)CC3)ccc1OCC2
< 1000 | CC(C)n1ncnc1-c1cn2c(n1)-c1ccc(OC(F)F)cc1OCC2
< 1000 | CC(C)n1ncnc1-c1cn2c(n1)-c1cnc(N3CC=C[C@@H]3C(N)=O)cc1OCC2
< 1000 | CC(C)n1ncnc1-n1cc2c(n1)-c1ccc(-c3cn[nH]c3)cc1OCC2
< 1000 | Cc1nc(-c2cn3c(n2)-c2cc(-c4ccc[nH]c4=O)ccc2OCC3)n(C(C)C)n1
< 1000 | CCOc1ccc2c(c1)OCCn1cc(-c3ncnn3C(C)C)nc1-2
< 1000 | NC(=O)CNc1cc2c(cn1)-c1nc(-c3ncnn3CC(F)(F)F)cn1CCO2
< 1000 | C[C@H](Oc1ccc2c(c1)OCCn1cc(-c3ncnn3-c3ccc(F)cc3F)nc1-2)C(N)=O
< 1000 | FC(F)(F)Cn1ncnc1-c1cc2n(n1)-c1cc(CNc3cnccn3)ccc1OCC2
< 1000 | Cc1nc(-c2cn3c(n2)-c2ccc(-c4cnn(C5CN(C(=O)[C@H](C)O)C5)c4)cc2OCC3)n(C(C)C)n1
< 1000 | CO[C@@H]1C[C@@H](C(N)=O)N(c2cc3c(cn2)-c2nc(-c4ncnn4C(C)C)cn2CCO3)C1
< 1000 | O=C(c1ccc2c(c1)-c1nc(-c3ncnn3CC(F)(F)F)cn1CCO2)N1CCN(CCO)CC1
< 1000 | FC(F)(F)Cn1ncnc1-c1cc2n(n1)-c1cc(C3CCNCC3)ccc1OCC2
< 1000 | CCc1ccc2c(c1)OCCn1cc(-c3nc(C)nn3C(C)C)nc1-2
< 1000 | Cc1nc(-c2cn3c(n2)-c2cnc(N4CCC[C@H]4C(N)=O)cc2OCC3)n(-c2cc(F)cc(F)c2)n1

IC50 [nM] | SMILES
< 1000 | CC(C)n1ncnc1-c1cn2c(n1)-c1cnc(NCC(N)=O)cc1OCC2
< 1000 | Cc1nc(-c2cn3c(n2)-c2ccc(-c4cccnc4)cc2OCC3)n(C(C)C)n1
< 1000 | NC(=O)CNc1ccc2c(c1)OCCn1cc(-c3ncnn3CC(F)(F)F)nc1-2
< 1000 | Cc1nc(-c2cn3c(n2)-c2ccc(OC4COC4)cc2OCC3)n(C(C)C)n1
< 1000 | CC(C)n1ncnc1-c1cn2c(n1)-c1ccc(-c3cnc(N)nc3)cc1OCC2
< 1000 | CC(C)n1ncnc1-c1cn2c(n1)-c1ccncc1OCC2
< 1000 | CC(C)n1ncnc1-c1cn2c(n1)-c1cnc(N3CCC[C@@]3(C)C(N)=O)cc1OCC2
< 1000 | NC(=O)CN1CCC(c2ccc3c(c2)-n2nc(-c4ncnn4CC(F)(F)F)cc2CCO3)CC1
< 1000 | NC(=O)[C@@H]1CCCN1c1cc2c(cn1)-c1nc(-c3ncnn3-c3ccccc3Cl)cn1CCO2
< 1000 | CC(C)n1ncnc1-c1cn2c(n1)-c1cnc(N3CC[C@H](C#N)C3)cc1OCC2
< 1000 | CC[C@@H](Oc1ccc2c(c1)OCCn1cc(-c3ncnn3CC(F)(F)F)nc1-2)C(N)=O
< 1000 | CC(C)n1ncnc1-c1cn2c(n1)-c1ccc(-c3ccccc3CO)cc1OCC2
< 1000 | CC(C)n1ncnc1-c1cc2n(n1)-c1cc(C(=O)NCC(C)(C)O)ccc1OCC2
< 1000 | Cc1nc(-c2cn3c(n2)-c2ccc(C(F)F)cc2OCC3)n(C(C)C)n1
< 1000 | Cc1nc(-c2cn3c(n2)-c2ccc(-c4cncnc4)cc2OCC3)n(C(C)C)n1
< 1000 | Cc1nc(-c2cn3c(n2)-c2cnc(N4CCCC4Cc4ccccc4C)cc2OCC3)n(CC(F)(F)F)n1 (centres undefined)
< 1000 | CC(C)N1CCC(c2ccc3c(c2)OCCn2cc(-c4ncnn4C(C)C)nc2-3)C(C(N)=O)C1 (centres undefined)
< 1000 | Cc1nc(-c2cn3c(n2)-c2ccc([C@H]4CCCN4C(N)=O)cc2OCC3)n(C(C)C)n1
< 1000 | CC(C)n1cnnc1-n1cc2c(n1)-c1ccccc1OCC2
< 1000 | OCc1nc(-c2cn3c(n2)-c2cnc(Cl)cc2OCC3)n(CC(F)(F)F)n1
< 1000 | CCCC(Oc1ccc2c(c1)OCCn1cc(-c3ncnn3C(C)C)nc1-2)C(N)=O (centres undefined)
< 1000 | CC(C)n1ncnc1-c1cn2c(n1)-c1ccc(-c3cnn(CCO)c3)cc1OCC2
< 1000 | CC(C)n1nccc1-c1cn2c(n1)-c1ccc(CNC(N)=O)cc1OCC2
< 1000 | CC(C)n1ncnc1-c1cn2c(n1)-c1ccc(O[C@@H](CO)C(N)=O)cc1OCC2
< 1000 | CC(C)n1nc(N)nc1-c1cn2c(n1)-c1ccc(-c3cncc(F)c3)cc1OCC2

IC50 [nM] | SMILES
< 1000 | NC(=O)c1ccc2c(c1)OCCn1cc(-c3ncnn3-c3ccccc3Cl)nc1-2
< 1000 | OCCN1CC(c2ccc3c(c2)OCCc2cn(-c4ncnn4-c4ccc(F)cc4F)nc2-3)C1
< 1000 | Cc1nc(-c2ccc3c(c2)OCCn2cc(-c4ncnn4C(C)C)nc2-3)cn1CCO
< 1000 | CC(C)n1ncnc1-c1cn2c(n1)-c1ccc(N)cc1OCC2
< 1000 | CC(C)n1ncnc1-c1cn2c(n1)-c1ccc(C3CCN(C(C)(C)C(N)=O)CC3)cc1OCC2
< 1000 | CC(C)n1ncnc1-c1cn2c(n1)-c1cnc(N3CC(O)C3)cc1OCC2
< 1000 | Cc1nc(-c2cn3c(n2)-c2ccc(C4CCN(C(C)(C)C(N)=O)CC4)cc2OCC3)n(C(C)C)n1
< 1000 | C[C@@H](Oc1ccc2c(c1)OCCn1cc(-c3ncnn3CC(F)(F)F)nc1-2)C(N)=O
< 1000 | Clc1ccc(-c2ccc3c(c2)OCCn2cc(-c4ncnn4-c4ccccc4Cl)nc2-3)cc1
< 1000 | CC(C)n1ncnc1-c1cn2c(n1)-c1ccc(N3CC[C@H]3C(N)=O)cc1OCC2
< 1000 | CN(C)c1cc2c(cn1)-c1nc(-c3nc(CO)nn3CC(F)(F)F)cn1CCO2
< 1000 | NC(=O)[C@@H]1COCCN1c1ccc2c(c1)OCCn1cc(-c3ncnn3CC(F)(F)F)nc1-2
< 1000 | CC(C)C(Oc1ccc2c(c1)OCCn1cc(-c3ncnn3CC(F)(F)F)nc1-2)C(N)=O (centres undefined)
< 1000 | CC(C)NC(=O)CN1CCC(c2ccc3c(c2)OCCn2cc(-c4ncnn4C(C)C)nc2-3)CC1
< 1000 | Clc1ccc(-c2ccc3c(c2)-c2nc(-c4ncnn4-c4ccccc4Cl)cn2CCO3)cc1
< 1000 | CC(C)n1ncnc1-c1cn2c(n1)-c1ccc(C3CCN(C(C)(C)CO)CC3)cc1OCC2
< 1000 | CC[C@H](Oc1ccc2c(c1)OCCn1cc(-c3ncnn3CC(F)(F)F)nc1-2)C(N)=O
< 1000 | CC(C)n1ncnc1-c1cc2n(n1)-c1cc(C3CN(CCO)C3)ccc1OCC2
< 1000 | COCCN1CCC(c2ccc3c(c2)OCCn2cc(-c4ncnn4C(C)C)nc2-3)CC1
< 1000 | CC(C)Oc1ccc2c(c1)OCCn1cc(-c3ncnn3C(C)C)nc1-2
< 1000 | CC(C)n1nccc1-c1cn2c(n1)-c1cnc(Cl)cc1OCC2
< 1000 | Cc1nc(-c2cn3c(n2)-c2ccc(OC4CCC4)cc2OCC3)n(C(C)C)n1
< 1000 | OCCN1CCC(c2ccc3c(c2)-n2nc(-c4ncnn4CC(F)(F)F)cc2CCO3)CC1
< 1000 | CC(C)n1ncnc1-c1cn2c(n1)-c1ccc(C(=O)NC(C)(C)CO)cc1OCC2

From the Kinase Knowledgebase extract (Sharma et al. 2016)
